The target in test [1] is Protein kinase C delta type (Homo sapiens) (UniProt Q05655). Kind of test: Selectivity interaction (ProQinase) EUB0000171b PRKCD.
Test [2] concerns the target T1, cGMP-dependent protein kinase 1 (Homo sapiens) (UniProt Q13976).
T1 sequence (whole entry): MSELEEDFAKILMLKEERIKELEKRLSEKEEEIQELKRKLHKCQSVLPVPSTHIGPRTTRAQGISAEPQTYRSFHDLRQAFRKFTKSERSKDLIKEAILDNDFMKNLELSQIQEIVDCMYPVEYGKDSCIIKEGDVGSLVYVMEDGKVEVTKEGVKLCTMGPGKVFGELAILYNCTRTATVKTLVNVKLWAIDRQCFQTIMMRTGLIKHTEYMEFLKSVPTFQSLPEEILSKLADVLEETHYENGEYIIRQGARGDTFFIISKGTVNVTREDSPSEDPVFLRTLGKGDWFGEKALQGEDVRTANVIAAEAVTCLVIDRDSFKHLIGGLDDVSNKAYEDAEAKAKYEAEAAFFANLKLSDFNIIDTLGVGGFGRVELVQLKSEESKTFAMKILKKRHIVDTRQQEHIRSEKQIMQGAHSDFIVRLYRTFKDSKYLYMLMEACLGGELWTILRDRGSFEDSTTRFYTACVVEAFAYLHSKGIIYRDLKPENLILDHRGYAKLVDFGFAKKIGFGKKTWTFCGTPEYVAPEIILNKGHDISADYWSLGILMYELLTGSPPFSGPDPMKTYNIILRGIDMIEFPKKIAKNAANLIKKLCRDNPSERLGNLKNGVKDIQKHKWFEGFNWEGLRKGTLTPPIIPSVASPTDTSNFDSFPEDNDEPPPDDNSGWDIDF
In words: Selectivity interaction (ProQinase) EUB0000171b PRKG1.

The test system of test [3] is Epidermal growth factor receptor (Homo sapiens), P00533 [UNDEFINED MUTATION]. In words: Selectivity interaction (Ambit KINOMEscan and KiNATiv profiling in Jurkat cells) EUB0000090b EGFR. It counts as cell-based. To be noted: at 1 µM.
Test [4] addresses Tyrosine-protein kinase ABL2 (Homo sapiens, UniProt P42684). Kind of test: Selectivity interaction (KinomeScan (DiscoverX)) EUB0001079a ABL2. To be noted: at 1 µM.
In test [5] the test system is Epidermal growth factor receptor (Homo sapiens), P00533 [UNDEFINED MUTATION]. In words: Selectivity interaction (KinomeScan (DiscoverX)) EUB0001049a EGFR. To be noted: at 1 µM.
The target of test [6] is Dual specificity tyrosine-phosphorylation-regulated kinase 1A (Homo sapiens, UniProt Q13627). Kind of test: Selectivity interaction (KinomeScan (DiscoverX)) EUB0000655a DYRK1A. As to conditions: at 10 µM.
The target of test [7] is Sodium-dependent serotonin transporter (Homo sapiens, UniProt P31645). In words: Selectivity interaction (Panel of kinases, GPCRs, ion channels and transporters (enzymatic assay)) EUB0000223bCl SLC6A4.
Test [8] deals with N-lysine methyltransferase SMYD2 (Homo sapiens) (UniProt Q9NRG4). As to conditions: at 1 µM.
The target of test [9] is T2, Serine/threonine-protein kinase Sgk1 (Homo sapiens) (UniProt O00141).
T2 sequence (whole entry): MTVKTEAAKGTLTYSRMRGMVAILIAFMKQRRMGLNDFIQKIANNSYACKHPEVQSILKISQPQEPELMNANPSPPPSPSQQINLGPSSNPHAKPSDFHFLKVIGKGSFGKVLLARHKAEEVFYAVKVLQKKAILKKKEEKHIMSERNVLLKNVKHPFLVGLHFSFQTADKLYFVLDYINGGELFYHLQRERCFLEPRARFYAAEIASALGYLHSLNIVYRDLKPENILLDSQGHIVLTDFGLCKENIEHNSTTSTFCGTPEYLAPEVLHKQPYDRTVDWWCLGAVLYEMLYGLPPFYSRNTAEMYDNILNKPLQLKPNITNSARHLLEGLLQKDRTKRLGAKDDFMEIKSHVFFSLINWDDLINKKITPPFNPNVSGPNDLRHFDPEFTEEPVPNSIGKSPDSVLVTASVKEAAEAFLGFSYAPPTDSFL
In words: Selectivity interaction (ActivX KiNativ screen (kinase selectivity in THP-1 cell lysates)) EUB0000639a SGK1. The format is subcellular. As to conditions: lysate.

The target in test [10] is Tyrosine-protein kinase JAK1 (Homo sapiens, UniProt P23458). Kind of test: Selectivity interaction (KinomeScan (DiscoverX)) EUB0001619a JAK1. As to conditions: at 1 µM.
Test [11] concerns the target T3, Phosphatidylinositol 4,5-bisphosphate 3-kinase catalytic subunit delta isoform (Homo sapiens) (UniProt O00329).
T3 sequence (whole entry): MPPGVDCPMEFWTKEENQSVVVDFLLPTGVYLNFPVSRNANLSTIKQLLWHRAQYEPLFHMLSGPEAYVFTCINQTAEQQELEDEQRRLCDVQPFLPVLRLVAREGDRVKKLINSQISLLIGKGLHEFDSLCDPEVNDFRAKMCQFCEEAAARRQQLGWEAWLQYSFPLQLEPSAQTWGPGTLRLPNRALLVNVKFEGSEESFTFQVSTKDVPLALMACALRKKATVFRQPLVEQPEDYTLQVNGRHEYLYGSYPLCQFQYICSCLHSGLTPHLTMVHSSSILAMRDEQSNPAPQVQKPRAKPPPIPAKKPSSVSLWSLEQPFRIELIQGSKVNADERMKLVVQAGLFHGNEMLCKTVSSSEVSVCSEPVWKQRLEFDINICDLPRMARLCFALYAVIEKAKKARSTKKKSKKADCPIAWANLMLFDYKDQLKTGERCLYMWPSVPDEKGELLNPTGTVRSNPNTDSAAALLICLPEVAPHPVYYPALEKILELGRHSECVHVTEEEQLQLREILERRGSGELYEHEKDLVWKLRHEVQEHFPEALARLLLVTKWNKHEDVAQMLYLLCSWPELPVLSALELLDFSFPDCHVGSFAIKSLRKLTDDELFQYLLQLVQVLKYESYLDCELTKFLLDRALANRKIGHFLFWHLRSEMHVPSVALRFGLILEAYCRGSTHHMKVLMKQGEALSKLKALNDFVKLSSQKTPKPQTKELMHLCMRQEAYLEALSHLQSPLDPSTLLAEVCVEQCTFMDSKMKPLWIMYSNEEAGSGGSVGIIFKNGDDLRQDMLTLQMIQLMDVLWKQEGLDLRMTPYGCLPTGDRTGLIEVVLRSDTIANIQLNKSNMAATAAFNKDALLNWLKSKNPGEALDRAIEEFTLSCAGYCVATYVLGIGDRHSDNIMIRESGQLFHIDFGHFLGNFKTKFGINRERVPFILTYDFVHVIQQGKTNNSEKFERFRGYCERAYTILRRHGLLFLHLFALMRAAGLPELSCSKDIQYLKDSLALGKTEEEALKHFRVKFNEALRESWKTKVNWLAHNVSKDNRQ
In words: Selectivity interaction (KinomeScan (DiscoverX)) EUB0001619a PIK3CD. As to conditions: at 1 µM.

Sequence of Protein kinase C delta type (Homo sapiens) (Q05655 whole entry, looked up): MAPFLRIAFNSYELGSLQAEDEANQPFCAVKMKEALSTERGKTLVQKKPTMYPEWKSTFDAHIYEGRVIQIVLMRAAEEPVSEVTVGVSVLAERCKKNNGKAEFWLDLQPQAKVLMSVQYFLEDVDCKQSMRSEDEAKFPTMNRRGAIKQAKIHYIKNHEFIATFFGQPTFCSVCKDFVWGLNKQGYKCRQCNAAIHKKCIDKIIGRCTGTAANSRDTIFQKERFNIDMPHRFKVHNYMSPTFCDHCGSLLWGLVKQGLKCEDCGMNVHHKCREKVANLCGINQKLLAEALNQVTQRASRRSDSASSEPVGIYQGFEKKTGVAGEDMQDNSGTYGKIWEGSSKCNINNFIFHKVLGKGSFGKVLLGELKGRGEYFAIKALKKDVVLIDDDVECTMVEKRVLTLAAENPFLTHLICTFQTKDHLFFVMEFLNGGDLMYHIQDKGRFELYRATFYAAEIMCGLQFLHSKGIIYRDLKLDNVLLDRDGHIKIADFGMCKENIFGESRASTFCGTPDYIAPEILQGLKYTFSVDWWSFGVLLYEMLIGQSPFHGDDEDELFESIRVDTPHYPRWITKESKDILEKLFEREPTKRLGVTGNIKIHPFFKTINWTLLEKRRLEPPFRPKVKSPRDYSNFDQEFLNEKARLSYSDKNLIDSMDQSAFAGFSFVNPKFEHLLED
Sequence of Epidermal growth factor receptor (Homo sapiens), P00533 [UNDEFINED MUTATION] (P00533 whole entry, looked up, change not shown): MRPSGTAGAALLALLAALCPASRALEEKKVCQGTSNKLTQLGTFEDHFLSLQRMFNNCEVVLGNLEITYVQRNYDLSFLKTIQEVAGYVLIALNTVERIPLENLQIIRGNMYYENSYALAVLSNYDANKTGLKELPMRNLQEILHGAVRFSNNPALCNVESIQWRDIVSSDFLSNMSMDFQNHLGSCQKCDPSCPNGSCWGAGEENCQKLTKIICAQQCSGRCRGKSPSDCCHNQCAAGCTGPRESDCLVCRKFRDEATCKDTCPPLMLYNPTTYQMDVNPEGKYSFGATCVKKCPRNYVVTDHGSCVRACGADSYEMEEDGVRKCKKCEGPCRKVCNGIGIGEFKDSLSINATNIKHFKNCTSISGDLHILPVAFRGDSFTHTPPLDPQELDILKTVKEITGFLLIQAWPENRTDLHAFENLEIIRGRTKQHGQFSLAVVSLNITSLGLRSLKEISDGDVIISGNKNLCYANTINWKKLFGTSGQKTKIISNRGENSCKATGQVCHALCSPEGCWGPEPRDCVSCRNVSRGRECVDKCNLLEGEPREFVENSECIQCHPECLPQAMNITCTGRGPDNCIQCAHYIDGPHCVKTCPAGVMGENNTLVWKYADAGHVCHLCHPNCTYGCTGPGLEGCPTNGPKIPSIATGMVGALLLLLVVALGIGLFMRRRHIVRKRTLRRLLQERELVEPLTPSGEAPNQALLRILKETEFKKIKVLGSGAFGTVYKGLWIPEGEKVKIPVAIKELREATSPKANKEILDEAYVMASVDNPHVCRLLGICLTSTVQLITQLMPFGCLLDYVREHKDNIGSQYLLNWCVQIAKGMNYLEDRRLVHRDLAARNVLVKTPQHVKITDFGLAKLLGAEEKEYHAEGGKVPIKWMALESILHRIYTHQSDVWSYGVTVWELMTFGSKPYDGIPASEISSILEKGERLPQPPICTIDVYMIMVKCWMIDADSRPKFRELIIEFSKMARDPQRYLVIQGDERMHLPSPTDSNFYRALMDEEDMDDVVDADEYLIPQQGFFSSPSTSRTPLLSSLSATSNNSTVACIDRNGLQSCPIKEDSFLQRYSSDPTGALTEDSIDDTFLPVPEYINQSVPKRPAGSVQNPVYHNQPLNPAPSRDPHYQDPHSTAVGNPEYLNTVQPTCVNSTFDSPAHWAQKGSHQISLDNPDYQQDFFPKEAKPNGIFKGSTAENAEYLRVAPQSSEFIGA
Sequence of Tyrosine-protein kinase JAK1 (P23458 whole entry, canonical isoform): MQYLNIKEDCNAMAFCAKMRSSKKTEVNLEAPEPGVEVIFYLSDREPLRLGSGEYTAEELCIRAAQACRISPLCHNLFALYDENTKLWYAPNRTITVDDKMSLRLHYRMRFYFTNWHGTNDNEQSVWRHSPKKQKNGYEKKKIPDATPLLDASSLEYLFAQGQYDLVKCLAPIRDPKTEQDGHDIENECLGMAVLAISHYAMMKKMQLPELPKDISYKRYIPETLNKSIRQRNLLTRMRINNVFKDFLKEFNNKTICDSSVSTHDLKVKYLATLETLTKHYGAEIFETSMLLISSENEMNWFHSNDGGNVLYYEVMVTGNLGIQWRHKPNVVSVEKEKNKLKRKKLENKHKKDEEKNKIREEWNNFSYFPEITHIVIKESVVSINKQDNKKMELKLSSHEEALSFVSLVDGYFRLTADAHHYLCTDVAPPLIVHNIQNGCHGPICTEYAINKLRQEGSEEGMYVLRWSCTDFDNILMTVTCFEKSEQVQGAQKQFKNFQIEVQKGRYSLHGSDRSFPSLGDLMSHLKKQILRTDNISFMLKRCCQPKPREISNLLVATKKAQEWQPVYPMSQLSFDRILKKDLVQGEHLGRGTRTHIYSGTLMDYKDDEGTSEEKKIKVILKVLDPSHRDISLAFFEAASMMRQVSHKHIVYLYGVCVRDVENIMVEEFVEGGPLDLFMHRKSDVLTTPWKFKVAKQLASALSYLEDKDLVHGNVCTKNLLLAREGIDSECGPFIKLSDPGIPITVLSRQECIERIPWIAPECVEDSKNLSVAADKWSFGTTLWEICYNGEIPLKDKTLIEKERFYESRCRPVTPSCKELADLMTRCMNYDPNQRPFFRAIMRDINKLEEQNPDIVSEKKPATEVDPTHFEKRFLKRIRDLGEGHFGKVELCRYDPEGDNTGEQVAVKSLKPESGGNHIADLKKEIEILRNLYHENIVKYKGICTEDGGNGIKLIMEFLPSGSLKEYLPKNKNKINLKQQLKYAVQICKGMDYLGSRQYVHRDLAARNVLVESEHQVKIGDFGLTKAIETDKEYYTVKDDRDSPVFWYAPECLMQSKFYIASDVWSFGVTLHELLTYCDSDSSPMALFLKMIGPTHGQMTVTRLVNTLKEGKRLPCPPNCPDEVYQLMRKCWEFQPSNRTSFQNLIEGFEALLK
Sequence of Sodium-dependent serotonin transporter (P31645 whole entry, looked up): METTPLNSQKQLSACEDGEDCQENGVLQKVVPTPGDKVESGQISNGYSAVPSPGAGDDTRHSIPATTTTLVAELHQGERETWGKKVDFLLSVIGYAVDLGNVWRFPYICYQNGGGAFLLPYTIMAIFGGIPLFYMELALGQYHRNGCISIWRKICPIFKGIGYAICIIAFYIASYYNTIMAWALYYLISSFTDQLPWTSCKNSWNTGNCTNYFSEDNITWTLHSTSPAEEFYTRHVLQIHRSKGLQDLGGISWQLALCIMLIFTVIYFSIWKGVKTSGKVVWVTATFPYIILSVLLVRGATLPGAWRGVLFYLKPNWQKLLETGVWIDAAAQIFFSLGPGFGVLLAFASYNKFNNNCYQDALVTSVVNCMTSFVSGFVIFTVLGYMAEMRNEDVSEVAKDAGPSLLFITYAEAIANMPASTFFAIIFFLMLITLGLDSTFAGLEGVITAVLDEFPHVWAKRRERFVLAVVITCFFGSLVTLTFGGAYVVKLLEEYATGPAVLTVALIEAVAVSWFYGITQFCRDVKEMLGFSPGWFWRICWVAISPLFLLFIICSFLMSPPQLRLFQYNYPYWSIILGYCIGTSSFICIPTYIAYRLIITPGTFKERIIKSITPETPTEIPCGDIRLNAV
Sequence of N-lysine methyltransferase SMYD2 (Homo sapiens) (Q9NRG4 whole entry): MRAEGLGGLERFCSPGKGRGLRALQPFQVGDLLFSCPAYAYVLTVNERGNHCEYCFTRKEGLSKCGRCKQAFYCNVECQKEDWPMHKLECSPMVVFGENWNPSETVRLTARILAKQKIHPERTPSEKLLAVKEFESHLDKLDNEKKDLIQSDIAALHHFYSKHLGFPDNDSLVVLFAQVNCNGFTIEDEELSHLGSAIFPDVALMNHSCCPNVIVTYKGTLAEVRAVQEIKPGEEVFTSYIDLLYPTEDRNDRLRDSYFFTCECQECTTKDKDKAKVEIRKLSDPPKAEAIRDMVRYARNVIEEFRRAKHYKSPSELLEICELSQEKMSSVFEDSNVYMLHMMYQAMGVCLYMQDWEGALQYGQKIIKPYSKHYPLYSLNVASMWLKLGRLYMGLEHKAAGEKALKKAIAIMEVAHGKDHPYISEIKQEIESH

`C=CC(=O)Nc1cccc(C(=O)Nc2ccc(Nc3cc(-c4[nH]c(SC)nc4C)ccn3)cc2)c1`: the % of control in [1] (at 1 µM) worked out at 84%; in [1] (at 5 µM), 94%; in test [2] (at 1 µM), 92%; in [2] (at 5 µM), 87%.

As to `CN(C)C/C=C/C(=O)Nc1ccc(C(=O)N2CCCC(Nc3ncc(Cl)c(-c4c[nH]c5ccccc45)n3)C2)cc1` (configuration not stated), the % of control in test [3] amounted to 77%.

In test [4], `Nc1cnc(N2CCc3cc(S(=O)(=O)Nc4c(F)cc(Cl)cc4F)cc(N4CCCC4=O)c32)nc1` [TP-020n] displayed a % of control of 95%.

In [5], `COc1cc(Nc2nc(C)cc(-c3cnn4nc(OC)ccc34)n2)cc(C(F)(F)F)c1` showed a % of control of 83%.

`CN(C)CCOc1ccc(-c2nc(-c3ccncc3)c(-c3ccc4c(c3)CC/C4=N\O)[nH]2)cc1` registered a % of control in test [6] of 94%.

As to `COc1cc(C(=O)N2CC[C@@H](O)[C@@H](N)C2)cc2nc(-c3cc4ccccc4n3CC3CC3)n(C)c12`, in [7], the pXC50 came out at 4.3 M.

In test [8], `CNCCN1CCC(c2cc(CN(C)C(=O)c3cccc(Oc4ccccc4)c3)ccn2)CC1` came in with a % activity greater than 90%.

Consider `CC[C@@H]1[C@H](F)C(=O)N[C@@H]1COc1nccc2cc(C(N)=O)c(OC)cc12` [ZIMLOVISERTIB], for which the % of inhibition in test [9] (at 0.01 µM) was -1%; in test [9] (at 0.04 µM), 3.1%; in [9] (at 0.2 µM), -5.7%; in [9] (at 1 µM), -1%; in test [9] (at 5 µM), -1.4%.

In the case of `N#Cc1cccc(-c2c[nH]c3ncnc(N4CCOCC4)c23)c1`, the % of control in test [10] and in [11] was 100% each time.

Source of the values: ChEMBL document CHEMBL5465560, “Selectivity Literature for EUbOPEN Chemogenomic Library” (2024).
